Measured values: PMC1764434 (PLoS Clinical Trials, 2007)
“And” between values parts separate entries of the source, which are not always exact repeats. Identical values can stand only once. “Also recorded” adds a separate entry of the source. Like-named read-outs stand apart in the source and are kept apart here.

Columns and labels:
[1] = system: CQ-resistant P. falciparum; conditions: cited from earlier work
[2] = Urinary excretion and renal clearance (24-hour urine collections, days 1-3); conditions: for mono-dealkylated metabolite/parent ratio in urine: AQ-72/AQ-13 and MDCQ/CQ; for second (di-dealkylated) metabolite/parent ratio in urine: AQ-73/AQ-13 and BDCQ/CQ; for detection of di-dealkylated metabolite in urine: urine collections days 1-3 after dosing
[3] = Blood pharmacokinetics after oral dosing (fluorescence HPLC, noncompartmental WinNonlin model); type: in vivo, human; conditions: for metabolite/parent ratio in blood at the Cmax of the parent drug: 600 mg dose, AQ-72/AQ-13 (mean) or MDCQ/CQ; for time to appearance of metabolite in the blood: after oral 600 or 700 mg AQ-13 or 600 mg CQ; for AUC / MRT / half-life / Tmax / Cmax / Vd/F: human; for detection of di-dealkylated metabolite in the blood: after oral AQ-13 or CQ
Description: Study drugs were administered in the GCRC on an empty stomach between 8 and 9 AM the morning after admission (after fasting for ≥ 10 h).

healthy volunteers [4] = test: Clinical adverse events (weekly diaries, blinded relatedness assessment), Phase I RCT; type: in vivo, human
Description: Adverse events (AEs) were recorded in weekly diaries provided to each volunteer. The relatedness of these AEs to the study drugs was assessed by two physicians (FM, CH) based on temporal association and biological plausibility using five categories: definitely not, unlikely, possibly, probably, and definitely related. The AEs reported in this manuscript include all AEs assessed as possibly, probably, or definitely related.
Quantitative data are presented as the mean ± standard deviation or as median and range, as appropriate. […] Due to a lack of normality, the nonparametric Mann-Whitney U test was used to compare independent samples; the Wilcoxon or Friedman test (whichever was appropriate) was used to compare repeated measures of the QTc interval. All statistical tests were two-sided with an α (significance level) of 0.05. Analyses were performed using the SPSS 11.0 statistical software (SPSS, Chicago, Illinois, United States). All analyses were based on allocation by intent-to-treat.

QT interval = test: Effects on the QT interval (ECG and Holter recordings, Bazett correction); conditions: for QTc interval, Baseline: before dosing
Description: The effects of the study drugs on the QT interval were assessed by comparing QT intervals before dosing with QT intervals 4 h after dosing, and at the 2 wk follow-up. […] QT intervals were measured manually and electronically (Rozinn Electronics, Glendale, New York, United States). […] Correction of the QT interval for heart rate (i.e., QTc) was performed using Bazett's formula [27].

healthy volunteers [5] = test: Post-dose clinical and laboratory follow-up (hematology, chemistry, organ toxicity); type: in vivo, human
[6] = whole blood, po, 600 mg, after 600 mg oral dose of parent drug (CQ or AQ-13), whole blood, median (range), read-out: AUCτ of metabolite
[7] = whole blood, after 600 mg oral dose of parent drug, median (range), read-out: MRT of metabolite (converted)
[8] = whole blood, after 600 mg oral dose of parent drug, median (range), read-out: t1/2 of metabolite (converted)
[9] = whole blood, after 600 mg oral dose of parent drug, median, read-out: Cmax of metabolite
[10] = 1,500 mg CQ (n = 15) / 1,750 mg AQ-13 (n = 14)
[11] = 100, 300 mg doses, n = 16 per drug
[12] = 600/700 mg, AQ-13 n = 25, CQ n = 24
[13] = all doses combined, 63 volunteers per drug
[14] = days 1-3, 1,750 mg AQ-13 / 1,500 mg CQ
[15] = 1,750 mg AQ-13, 1,500 mg CQ, mean ± SD
[16] = 600/700 mg AQ-13, 600 mg CQ, mean ± SD

CCNCCCNc1ccnc2cc(Cl)ccc12 [AQ-72]
activity of major metabolite against CQ-resistant parasites [1]: not active against CQ-resistant parasites
mono-dealkylated metabolite/parent ratio in urine ([2]; days 1-3): 23.6%
time after drug administration at which metabolite/parent ratio reached 1.0 ([3]; 600 mg AQ-13, AQ-72/AQ-13 ratio): 3 to 6 days
metabolite/parent ratio in blood at the Cmax of the parent drug [3]: 0.37
time to appearance of metabolite in the blood [3]: ≤ 1 h
AUC ([3]; whole blood, oral, 700 mg, after 700 mg AQ-13, median (range), read-out: AUCτ of metabolite): 262 µM·h
AUC ([3]; whole blood, oral, 1750 mg, after 1,750 mg AQ-13 over 3 d, median (range), read-out: AUCτ of metabolite): 440 µM·h
MRT ([3]; whole blood, oral, 1750 mg, after 1,750 mg AQ-13 over 3 d, median (range), read-out: MRT of metabolite (converted)): 17.4 days
half-life ([3]; whole blood, oral, 1750 mg, after 1,750 mg AQ-13 over 3 d, median (range), read-out: t1/2 of metabolite (converted)): 10.5 days
Tmax ([3]; whole blood, oral, after 600 mg AQ-13, median, read-out: Tmax of metabolite): 0.625 days
MRT ([3]; whole blood, oral, after 700 mg AQ-13, median (range), read-out: MRT of metabolite (converted)): 18.6 days
half-life ([3]; whole blood, oral, after 700 mg AQ-13, median (range), read-out: t1/2 of metabolite (converted)): 12.3 days
AUC [3, 6]: 211 µM·h
MRT [3, 7]: 16.6 days
half-life [3, 8]: 11.1 days
Cmax [3, 9]: 590 nM

NCCCNc1ccnc2cc(Cl)ccc12 [AQ-73]
second (di-dealkylated) metabolite/parent ratio in urine ([2]; days 1-3): 5.2%
detection of di-dealkylated metabolite in urine [2]: identified in urine collections
detection of di-dealkylated metabolite in the blood [3]: not detected in the blood

CC(CCCN)Nc1ccnc2cc(Cl)ccc12 (stereo not drawn) [BDCQ]
second (di-dealkylated) metabolite/parent ratio in urine ([2]; days 1-3): 2.6%
detection of di-dealkylated metabolite in urine [2]: identified in urine collections
detection of di-dealkylated metabolite in the blood [3]: not detected in the blood

CCN(CC)CCCC(C)Nc1ccnc2cc(Cl)ccc12 (stereo not drawn) [CQ, chloroquine]
related adverse events: None (healthy volunteers [4]; 10 mg dose, n = 8 per drug): 0
Abdominal pain, number (%) (healthy volunteers [4]; [10]): 0
Blurred vision, number (%) (healthy volunteers [4]; [10]): 2 (13%)
Diarrhea, number (%) (healthy volunteers [4]; [10]): 4 (27%)
Difficulty focusing/visual floating objects, number (%) (healthy volunteers [4]; [10]): 3 (20%)
Lightheadedness/Dizziness, number (%) (healthy volunteers [4]; [10]): 4 (27%)
Loss of appetite, number (%) (healthy volunteers [4]; [10]): 2 (13%)
Nausea, number (%) (healthy volunteers [4]; [10]): 5 (33%)
Vomiting, number (%) (healthy volunteers [4]; [10]): 2 (13%)
Weakness/fatigue, number (%) (healthy volunteers [4]; [10]): 0
Headache, number (%) (healthy volunteers [4]; 1,500 mg CQ (n = 15) / 1,750 mg AQ-13 (n = 14) over 3 d): 4 (27%)
Headache, volunteers with related AE, number (%) (healthy volunteers [4]; [11]): 1 (6%)
Lightheadedness/Dizziness, number (%) (healthy volunteers [4]; [11]): 1 (6%)
Nausea, number (%) (healthy volunteers [4]; [11]): 0
Abdominal pain, number (%) (healthy volunteers [4]; [12]): 0
Diarrhea, number (%) (healthy volunteers [4]; [12]): 2 (8%)
Ear symptoms, number (%) (healthy volunteers [4]; [12]): 2 (8%)
Headache, number (%) (healthy volunteers [4]; [12]): 5 (21%)
Lightheadedness/Dizziness, number (%) (healthy volunteers [4]; [12]): 3 (13%)
Loss of appetite, number (%) (healthy volunteers [4]; [12]): 3 (13%)
Nausea, number (%) (healthy volunteers [4]; [12]): 1 (4%)
Vomiting, number (%) (healthy volunteers [4]; [12]): 0
drug-related GI symptoms, number of reports (healthy volunteers [4]; all doses combined): 20 reports
drug-related lightheadedness/dizziness, volunteers/total (healthy volunteers [4]; [13]): 8/63
volunteers reporting one or more GI symptoms/total (healthy volunteers [4]; [13]): 13/63
amount of unchanged drug recovered from 24 hour urine collections [2, 14]: 829 µmol
unchanged drug recovered from 24 hour urine collections, % of total oral dose [2, 14]: 18.0%
CL renal ([2]; human, in vivo, po, 1500 mg): 100 mL/min
QTc interval of individual volunteers who developed QTc greater than 450 ms (QT interval; 600 mg CQ, two females): 467 ms and 457 ms
mean QTc prolongation after the first dose (day 1) (QT interval; 1,500 mg CQ (first 600 mg dose) / 1,750 mg AQ-13 (first 700 mg dose)): 16 ms
additional QTc increase after the second dose (day 2) (QT interval; 1,500 mg CQ / 1,750 mg AQ-13): 12 ms
QTc interval of individual volunteers who developed QTc > 450 ms (QT interval; 1,500 mg CQ, 4 h after dosing on day 2, two females): 453 ms
QTc interval, Baseline (QT interval; 1,750 mg AQ-13 (n = 13), 1,500 mg CQ (n = 14), mean ± SD): 396 ± 21 ms
QTc interval, 2 wk follow-up (QT interval; [15]): 412 ± 13 ms
QTc interval, 4–5 h post-dose (day 1) (QT interval; [15]): 412 ± 22 ms
QTc interval, 4–5 h post-dose (day 2) (QT interval; [15]): 424 ± 19 ms and 424 ± 18 ms
QTc interval, 4–5 h post-dose (day 3) (QT interval; [15]): 417 ± 21 ms
mean QTc prolongation, females (QT interval; 1,750 mg AQ-13 / 1,500 mg CQ): 28 ms
mean QTc prolongation, males (QT interval; 1,750 mg AQ-13 / 1,500 mg CQ): 31 ms
mean increase in the QTc interval from baseline (QT interval; 1,750 mg AQ-13 / 1,500 mg CQ, 4 h after the second dose on day 2): 28 ms
QTc interval, Baseline (QT interval; 600/700 mg AQ-13 (n = 25), 600 mg CQ (n = 24), mean ± SD): 406 ± 19 ms
QTc interval, 2 wk follow-up (QT interval; [16]): 403 ± 15 ms
QTc interval, 4–5 h post-dose (day 1) (QT interval; [16]): 421 ± 20 ms
maximal prolongation of the QTc interval from baseline at the individual level (QT interval; 600/700 mg dose): 54 ms
maximal prolongation of the QTc interval from baseline at the individual level (QT interval; 1,500/1,750 mg dose): 63 ms
mean increase in the QTc interval from baseline, females (QT interval; 4 h after 600 mg CQ or 600/700 mg AQ-13): 22 ms
mean QTc interval change from baseline, males (QT interval; 4 h after 600 mg CQ or 600/700 mg AQ-13, not significant): 7 ms
mean increase in the QTc interval from baseline (QT interval; 4 h after 600 mg CQ or 600 or 700 mg AQ-13): 15 ms and 16 ms
arrhythmias or other cardiac AEs (QT interval; all doses): no arrhythmias or other cardiac AEs; also recorded: no cardiac AEs
hematologic or chemical toxicities on repeat laboratory testing (healthy volunteers [5]; 4 d after drug administration): no hematologic or chemical toxicities
organ toxicity (healthy volunteers [5]; any dose tested, inpatient exams, 2 and 4 wk follow-up): No hematologic, hepatic, renal, or other organ toxicity was observed; also recorded: no clinical evidence for end-organ toxicity
blood level one hour after dosing as % of Cmax ([3]; 600 mg oral dose): 72%
Cl/F ([3]; 1,500 mg oral over 3 d, median (range)): 9.5 L/h
median oral clearance (range of medians across dose levels) ([3]; 600 and 1,500/1,750 mg doses): 9.5 to 11.3 L/h
Cmax ([3]; in vivo, 1500 mg, 1,500 mg oral over 3 d (600+600+300 mg), whole blood, median (range), read-out: Cmax): 3400 nM
Vd/F ([3]; in vivo, 1500 mg, 1,500 mg oral over 3 d, median (range)): 3720 L
MRT ([3]; in vivo, 1500 mg, 1,500 mg oral over 3 d, median (range), read-out: MRT (converted)): 16 days
Tmax ([3]; in vivo, 1500 mg, 1,500 mg oral over 3 d, median (range), read-out: Tmax): 1.1 days
half-life ([3]; in vivo, 1500 mg, 1,500 mg oral over 3 d, median (range), read-out: t½ (converted)): 13.2 days
AUC ([3]; in vivo, po, 600 mg, single oral 600 mg dose, whole blood, median (range), read-out: AUCw1 (partial AUC for week 1)): 90 µM·h
AUC ([3]; in vivo, po, 600 mg, single oral 600 mg dose, whole blood, median (range), read-out: AUCτ (total area under the curve)): 241 µM·h
AUC ([3]; in vivo, po, 1500 mg, 1,500 mg oral over 3 d, median (range), read-out: AUCw1): 312 µM·h
AUC ([3]; in vivo, po, 1500 mg, 1,500 mg oral over 3 d, median (range), read-out: AUCτ): 636 µM·h
Tmax ([3]; in vivo, 1,750 mg AQ-13 / 1,500 mg CQ, 27–28 h after the first dose, read-out: time of peak blood concentration after the second dose): 0.125 to 0.167 days
half-life ([3]; in vivo, 600 and 1,500 mg oral doses, read-out: estimate of the terminal elimination t1/2 (across doses)): 14 to 24 days
Cmax ([3]; in vivo, single oral 600 mg dose (CQ base equivalent), whole blood, median (range), read-out: Cmax): 1800 nM
Vd/F ([3]; in vivo, single oral 600 mg dose, median (range)): 8670 L
MRT ([3]; in vivo, single oral 600 mg dose, whole blood, median (range), read-out: MRT (converted)): 24.7 days
Tmax ([3]; in vivo, single oral 600 mg dose, whole blood, median (range), read-out: Tmax): 0.125 days
half-life ([3]; in vivo, single oral 600 mg dose, whole blood, median (range), read-out: t½ (terminal elimination half-life) (converted)): 23.3 days
linearity of pharmacokinetics ([3]; oral doses in healthy volunteers): linear pharmacokinetics
Cl/F (apparent oral clearance) ([3]; single oral 600 mg dose, median (range)): 11.3 (5.7–20.3) l/h

CCNCCCC(C)Nc1ccnc2cc(Cl)ccc12 (stereo not drawn) [MDCQ, mono-desethylchloroquine]
mono-dealkylated metabolite/parent ratio in urine ([2]; days 1-3): 22.7%
time after dosing at which metabolite/parent ratio reached 1.0 ([3]; 600 mg CQ, MDCQ/CQ ratio): 2–3 wk
metabolite/parent ratio in blood at the Cmax of the parent drug [3]: 0.26
time to appearance of metabolite in the blood [3]: ≤ 1 h
AUC ([3]; whole blood, oral, 1500 mg, after 1,500 mg CQ over 3 d, median (range), read-out: AUCτ of metabolite): 330 µM·h
MRT ([3]; whole blood, oral, 1500 mg, after 1,500 mg CQ over 3 d, median (range), read-out: MRT of metabolite (converted)): 29 days
half-life ([3]; whole blood, oral, 1500 mg, after 1,500 mg CQ over 3 d, median (range), read-out: t1/2 of metabolite (converted)): 21.8 days
AUC [3, 6]: 205 µM·h
MRT [3, 7]: 44.8 days
half-life [3, 8]: 31.2 days
Cmax [3, 9]: 540 nM
